Measurements published in PubChem BioAssay AID720520 (The Scripps Research Institute Molecular Screening Center, 2013).

Columns and labels:
Assay in all cases: selectivity of inhibitors across other TLRs – RAW264.7 cells, luminescence, powder samples, selectivity assay for TLR9 inhibitor project, late-stage follow-up (AID 720520); call rule not given here
TLR7/8 = conditions: RAW264.7 TLR2/4/7-8 NFkB-luciferase reporter, 6 h, with R848 1 µg/mL
TLR2 = conditions: RAW264.7 TLR2/4/7-8 NFkB-luciferase reporter, 6 h, with MALP-2 50 ng/mL
TLR4 = conditions: RAW264.7 TLR2/4/7-8 NFkB-luciferase reporter, 6 h, with LPS 0.1 µg/mL

Measured: IC50

O=S(=O)(/C=C/C=C/S(=O)(=O)c1ccccc1)c1ccccc1
active: TLR7/8 93 nM | TLR2 126 nM | TLR4 126 nM

COc1ccc(C[C@@H]2OC3(C=CC(=O)C=C3)O[C@H]2Cc2ccc(OC)cc2)cc1
active: TLR7/8 80 nM | TLR2 58 nM | TLR4 72 nM

O=C1C=CC2(C=C1)O[C@H](Cc1ccccc1)[C@@H](Cc1ccccc1)O2
active: TLR7/8 245 nM | TLR2 226 nM | TLR4 226 nM
